The results in this text go back to ChEMBL document CHEMBL3507680, “University of Dundee, Gates Library screen for HepG2 cell viability”.

This data set in a line: Human HepG2 cell viability assay in 384 well format. The format is toxicity, cell-based. On the set-up: dose 125 nL, time 70.5 hour; concentration not given beside the values. To be noted: HepG2 cells, read-out: Inhibition.

Take `COCc1nnc(C(=O)N2CC(N3CCCCC3)C2)o1`: the cytotoxicity at 70.5 h is -9.01%.
In the case of `CCS(=O)(=O)N1CC[C@@H]2[C@@H](CCC(=O)N2CCc2ccccc2)C1`, the cytotoxicity at 70.5 h came out at 1.58%.
Take `CC(C)CN1CCN(C)C(CCO)C1` (centres undefined): the cytotoxicity at 70.5 h is -8.39%.
For `CN(Cc1ccncn1)C(=O)CCc1[nH]nc2c1CCCC2`, the cytotoxicity at 70.5 h was -5.7%.
The result for `Cc1n[nH]c(C)c1CCc1ccc(S(C)(=O)=O)cc1` reads -13.7%; that for `Cc1cccc(-n2nc(CC(C)C)nc2CCCC(N)=O)c1`, -6.23%; that for `Cc1nnsc1CN1C[C@@H]2CC[C@H](C1)N(Cc1c(C)noc1C)C2=O`, -0.902%.
For the compound `Cc1ccsc1C(=O)N1CCC(c2nccn2Cc2ccncc2)CC1`, the cytotoxicity at 70.5 h is -9.49%.
Under `Nc1nc(CCC(=O)N2C[C@H](c3ccccc3)[C@@H](N)C2)cs1` stands -20.5%; under `O=C(c1nc(=O)[nH]c2ccccc12)N1CCCC(CC2CC2)(C(=O)O)C1` (centres undefined), -8.79%.
For `O=C(NCc1nnc2n1CCC2)c1cn(-c2ccccc2)nn1`, the cytotoxicity at 70.5 h is -5.59%.
With `CN(C)Cc1cc(-c2nccn2CCn2cccn2)ccc1O`, the cytotoxicity at 70.5 h is -11.1%.
Under `O=c1n(CC2CCCO2)nc(CC2CCNCC2)n1-c1ccccc1` (centres undefined) stands -11%.
Under `CN1CC2(CCNCC2)CC1C(=O)NCCCNc1cccnc1` (centres undefined) stands 17.1%.
The result for `CCc1nc(N2CCC3(CCC(=O)N(Cc4ccncc4)C3)CC2)no1` reads 10.6%.
As to `COc1nccnc1N1CCC(C(=O)O)(n2ccc(C(C)(C)C)n2)CC1`, the cytotoxicity at 70.5 h is -10.8%.
The result for `Cc1nc(C(=O)N2CCN(c3ccc(Cl)c(Cl)c3)CC2)cs1` reads -3.76%; that for `Cc1ncsc1CCN(C)C(=O)c1ncccc1O`, -7.99%; that for `Cc1nn(C)c2nc(N(Cc3ccccc3)CC3CCCO3)sc12` (centres undefined), -11%.
For the compound `Cc1ncc(CC(=O)N2CCC3(CCC(=O)N(C4CC4)C3)CC2)c(=O)[nH]1`, the cytotoxicity at 70.5 h is 5.88%.
For `Cc1cccc2cc(C(=O)N3CCN(S(=O)(=O)N(C)C)CC3)n(C)c12`, the cytotoxicity at 70.5 h came to 1.01%.
The result for `CCc1nnc(CN2CCN(c3cccc(OC)c3)C(=O)C2)o1` reads 12.1%; that for `Cc1nc2ccccc2nc1CN1CCn2nc(CCC(=O)O)cc2C1`, -7.38%.
`CCn1c(C2CCCN(Cc3cc(OC)cc(OC)c3)C2)nn(C)c1=O` (centres undefined): the cytotoxicity at 70.5 h was -4.68%.
The result for `CCc1cc(N(C)Cc2cc[nH]n2)n2nc(C)c(C)c2n1` reads -4.44%.
Under `CCCc1nc(C(=O)N2CCn3nc(C(=O)OC)cc3C2)cs1` stands 16.6%.
As for `CC(=O)N[C@@H]1CN(c2nc(C(N)=O)cs2)C[C@H]1c1ccc(C)o1`, the cytotoxicity at 70.5 h was -15.3%.
Take `Cn1ccnc1CN(CCO)C(=O)C1CCN(C(=O)C2CC2)CC1`: the cytotoxicity at 70.5 h came out at 0.876%.
Under `Cc1[nH]c2c(C)ccc(C)c2c1CC(=O)NCC(O)c1cccnc1` (centres undefined) stands -10.2%.
Take `CCc1cnc(N)nc1NCCCn1nc(C)nc1C`: the cytotoxicity at 70.5 h was -9.39%.
Take `COCCN1CCN(C(=O)c2ccc(COC)o2)[C@H]2CS(=O)(=O)C[C@H]21`: the cytotoxicity at 70.5 h amounted to 11.2%.
The result for `CCNc1ccnc(NCC2(N(C)C)CCOCC2)n1` reads -5.81%; that for `Cc1nccn1CC1CCCN(Cc2ccc(-c3cccnc3)cc2)C1` (centres undefined), -9.2%.
Take `COc1ccc(OC)c(C2CCN(C3CCN(C(C)=O)CC3)C2)c1` (centres undefined): the cytotoxicity at 70.5 h came out at 2.82%.
As to `Cc1ccc(N2CCC(CCN3CCCC3=O)CC2)nn1`, the cytotoxicity at 70.5 h is -22%.
As for `c1ccc(OCCCn2ccnc2-c2cn(C3CCNCC3)nn2)cc1`, the cytotoxicity at 70.5 h is -4.27%.
Consider `CN(C)C(Cn1ccnc1-c1ccccc1C(=O)O)c1ccccc1Cl` (centres undefined), for which the cytotoxicity at 70.5 h was 10.5%.
The result for `N#Cc1cccc(N2CCOC3(CNCCOC3)C2)n1` (centres undefined) reads 15.5%.
Under `COCc1nnc(C(=O)N2CCCC(O)C2)o1` (centres undefined) stands -1.1%.
The result for `CCc1cc(NCCCOC2CCN(C)CC2)ncn1` reads -15.3%; that for `CN(C)CCNc1cc(-c2ncccc2Cl)c2cc[nH]c2n1`, 1.89%; that for `O=C(C1CCCCO1)N1CCc2ncnc(NCc3ccon3)c2CC1` (centres undefined), -9.14%.
For `O=C(CC1COCCN1S(=O)(=O)c1ccccc1)NCc1ccccn1` (centres undefined), the cytotoxicity at 70.5 h was -15.7%.
`Nc1nc2c(c(N3CCC(CN4CCCC4=O)CC3)n1)CCNCC2`: the cytotoxicity at 70.5 h was -8.27%.
The result for `CC[C@H](C)Cn1nc(C2CCNCC2)n(Cc2ccccc2)c1=O` reads -2.63%; that for `CNc1nc(C(=O)NCc2cccnc2N(C)C)cs1`, 1.65%; that for `CCn1ncnc1CN1CCC(CNC(=O)c2cccc(C)n2)C1` (centres undefined), -5.47%.
The result for `CCc1noc(CN(CC)C(=O)CC2C(=O)NCCN2CC(C)(C)C)n1` (centres undefined) reads 0.786%; that for `OCCn1ncc2c1CN(CC1CCOc3ccccc3C1)C2` (centres undefined), -0.723%; that for `Cc1nc(C)c(Cn2ccnc2-c2cc(CN(C)C)cs2)s1`, 2.87%.
The result for `CCCN1CCc2[nH]cnc2C12CCN(C(=O)CCn1cccn1)CC2` reads -2.96%; that for `Cn1cccc1-c1cc(C(=O)NCCc2nnc(N)s2)[nH]n1`, 4.96%.
As to `Cc1cccc(C)c1Oc1ncccc1CNC(=O)C1(C)CCCNC1` (centres undefined), the cytotoxicity at 70.5 h was -7.62%.
The result for `Cc1cc(C(=O)N2C[C@H]3CC[C@@H]2CN(Cc2ccccn2)C3)nc(N)n1` reads 23.1%.
Under `CCCN(CC)C(=O)c1cc(Cn2c(C)nc3ccccc32)[nH]n1` stands -4.58%; under `Cc1cccnc1CC(C)N(C)C(=O)c1cccs1` (centres undefined), -10.3%; under `CC(=O)Nc1ccc(Oc2ccc(CN3CCCC3)cc2F)cc1`, -3.88%.
For `O=C(NCc1cccnc1N1CCc2ccccc2C1)c1cnc[nH]1`, the cytotoxicity at 70.5 h is -10.2%.
As to `O=C(CCCc1cn[nH]c1)N1C[C@@H](CN2CCCC2)C[C@H](CO)C1`, the cytotoxicity at 70.5 h is -6.82%.
`CCCOC(C)C(=O)N1CCC(O)(c2ccc3nc(C)ccc3c2)CC1` (centres undefined): the cytotoxicity at 70.5 h is -3.14%.
Under `Cc1ccc(-c2noc(CN3CC(n4cc(C)cn4)C3)n2)cc1` stands -0.527%; under `CCn1cnnc1C1CCN(C(=O)c2ccc(Cl)cc2OC)CC1`, -9.75%.
The result for `CCc1nccn1C1CCCN(C(=O)c2ccc3c(c2)nnn3C)C1` (centres undefined) reads -5.62%; that for `CC(C)c1cc(NC(=O)c2ccc([S+]([O-])C(C)C)cc2)[nH]n1` (centres undefined), -3.24%.
Under `CC(C)c1cc(NC(=O)c2ccncc2)[nH]n1` stands 2.62%; under `Cc1nc(C)n(CC2CCCN2Cc2ncc(C(C)(C)C)o2)n1` (centres undefined), -4.1%.
Take `CCc1noc(CNc2ccc(C(=O)N3CCCC3)cc2C)n1`: the cytotoxicity at 70.5 h came to 10.5%.
Under `CCc1nccn1C1CCCN(C(=O)c2ccc(-n3ccnc3)cc2)C1` (centres undefined) stands -10.5%; under `Cc1cnn(CC2CCCCN2Cc2ncc(C(C)(C)C)o2)c1` (centres undefined), -7.03%.
The result for `Cc1oc(C(=O)O)cc1S(=O)(=O)Nc1cc(Br)ccc1Cl` reads 1.56%; that for `CC(C)c1nn(C)c(N(C)C)c1CNC(C)c1ccccc1F` (centres undefined), -1.04%.
The result for `CCn1cc(CN2CCCN(C(=O)CCN3CCCC3=O)CC2)cn1` reads -3.66%; that for `CC1CCCN(Cc2ccc(OCc3nccn3C)cc2)C1` (centres undefined), 14.2%.
Regarding `Cc1ccc(-c2nc(C(=O)NCC3CCOC3)cs2)cc1` (centres undefined), the cytotoxicity at 70.5 h was -15.2%.
Take `O=C(NCC1CCOC1)c1csc(-c2ccc(Cl)cc2)n1` (centres undefined): the cytotoxicity at 70.5 h is -26.9%.
On to `O=C(NCC1CCOC1)c1csc(-c2ccc(F)cc2)n1` (centres undefined), for which the cytotoxicity at 70.5 h was -6.03%.
The result for `CCN(Cc1nc2c(cnn2C)c(=O)[nH]1)Cc1ccco1` reads -13.6%.
Under `Cc1ccc(CN(Cc2nc3c(cnn3C)c(=O)[nH]2)C2CC2)o1` stands -5.9%; under `CN(C)C(=O)CN1CCN(Cc2coc(-c3cccc(F)c3)n2)CC1`, -11.2%.
The result for `Cc1nccc(CNC(=O)CCc2c(C)nc3cc(O)nn3c2C)n1` reads -5.73%; that for `CC(C)Cc1cc(NC(=O)c2cccnc2)n(C)n1`, -9.43%; that for `Cn1ccnc1COc1ccc(CN2CCC(C(N)=O)CC2)cc1`, -11.1%.
Take `Cc1cnn(C2CCCN(C(=O)c3ccc(C(N)=O)cn3)C2)c1` (centres undefined): the cytotoxicity at 70.5 h was 3.91%.
As to `CNC(=O)CCNC(=O)CCc1c(C)nc2cc(O)nn2c1C`, the cytotoxicity at 70.5 h is -4.97%.
The result for `CCOc1ccc(Cl)c(C(=O)N2CCN(c3ccncc3)CC2)n1` reads -13.6%.
Under `O=C(c1ccc2c(c1)OCO2)N1CCC(Nc2cccnn2)CC1` stands 9.12%; under `Cc1ccc(NC2CCN(C(=O)c3ccc4c(c3)CCC4)CC2)nn1`, -0.715%.
The result for `N#Cc1cccc(C(=O)N2CCC(Nc3cccnn3)CC2)c1` reads -19.9%; that for `Cc1cccc(CNC(=O)CCc2c(C)nc3cc(O)nn3c2C)n1`, -14%.
For the compound `Cc1oc(C(=O)O)cc1S(=O)(=O)Nc1ccccc1F`, the cytotoxicity at 70.5 h was -11.3%.
In the case of `Cc1oc(C(=O)O)cc1S(=O)(=O)Nc1cc(F)ccc1F`, the cytotoxicity at 70.5 h amounted to 5.73%.
The result for `Cc1ccsc1CNC(=O)CCc1c(C)nc2cc(O)nn2c1C` reads -10.8%; that for `Cc1nc(CN2CCCN(c3nccs3)CC2)no1`, 10.6%.
The result for `CCN(CC)CC(=O)N(C)C(c1cccc(F)c1)c1ccccn1` (centres undefined) reads 13.5%.
Regarding `Cc1ccc(NC2CCN(C(=O)c3sccc3C3CC3)CC2)nn1`, the cytotoxicity at 70.5 h is -8.46%.
In the case of `COCCN1CCC(NCc2c(F)cccc2F)C1` (centres undefined), the cytotoxicity at 70.5 h is -0.0127%.
As to `CC(C)c1noc(CN2CCCN(Cc3cccs3)CC2)n1`, the cytotoxicity at 70.5 h was -25.6%.
Under `Cc1cc(C2CCCN(C(=O)CCc3cscn3)C2)n[nH]1` (centres undefined) stands -19.6%; under `CSc1ccc(C(=O)N2CCOCC2c2c(C)nn(C)c2C)o1` (centres undefined), -4.66%.
